Experiment [1] has as its system mouse melanoma cells (B16). Put plainly: growth-inhibitory effect on mouse melanoma cells, dye exclusion method. In kind it is cell-based. As for the experimental part:
The growth-inhibitory effects of the compound of the present invention on mouse melanoma cells (B16) and human melanoma cells (A375) were examined. A 96-well plate was inoculated with mouse melanoma cells at a ratio of 1.5 x 10³ cells per well, while another 96-well plate was inoculated with human melanoma cells at a ratio of 1.0 x 10³ per well. These cells were incubated in an incubator at 37°C under 5 % CO₂. Then the compound of the present invention was added thereto at various concentrations. Cells in each well were counted by the dye exclusion method 65 hours after the addition to thereby evaluate the growth-inhibitory effect of the test compound on the mouse melanoma cells and that on the human melanoma cells.

The subject of experiment [2] is two-spotted spider mite acarids (a Kelthane-resistant species). Put plainly: insecticidal action, mortality rate of spider mites. The experiment is classed as in vivo. The conditions noted are these: Tetranychus urticae, 48 h, Imagos of two-spotted spider mite, after 2 days. How it is done:
The insecticidal action of the compound of the present invention was examined by the following method. • (1) An imago of two-spotted spider mite acarids (a Kelthane-resistant species) was used as a test vermin, and the mortality rate thereof was assayed according to an ordinary method (described on page 327 of "Noyaku Seibutsu Kenteiho" edited by Toyoji Hosotsuji). Specifically, a solution of the compound of the present invention in acetone (0.1 %) was added to 0.5 ml of an aqueous sucrose solution (1 %) to have a predetermined concentration. Ten two-spotted spider mite acarids were released in a vessel (200-ml beaker), and the vessel was covered with a paraffin film. The agent solution prepared above was put on the paraffin film, and another praffin film was put thereon. The beaker was allowed to stand in a thermostatic chamber (20 ± 1°C) for a predetermined period of time, and the life and death of the test vermin was investigated. • (2) A larva of mosquito culices (a sensitive species) was used as a test vermin, and the mortality rate thereof was assayed according to an ordinary method (described on page 109 of "Noyaku Jikkenho I, Sacchuzaihen" published by Soft Science, Inc.). Specifically, 10 ml of well water was placed in a vessel (15-ml Schale), and 5 larvae of mosquito culices (the third stage) were released in the vessel. A solution of the compound of the present invention in acetone (0.1 %) was added thereto so as to have a predetermined concentration. The vessel was allowed to stand in a thermostatic chamber (26 ± 1°C) for a predetermined period of time, and the life and death of the test vermin was investigated.

This is an account of results in EP0322748B1, “Antibiotic NK86-0279, process for production of the same and application of the same” (NIPPON KAYAKU KABUSHIKI KAISHA, priority 1987, dated 1989).

≈ marks a conversion by molar mass, not a printed value.

`CCC1C=CC=CCC(C)C(O)C(C)(O)C(=O)C(C)C(O)C(C)C(=O)C(C)C(O)C(C)C=CC(=O)OC2C(C)C(CC1)OC1(OC(CC(C)O)C(C)CC1=O)C2CC` (stereo not drawn) [NK86-0279]: in experiment [1] (Mus musculus, 65 h, B16, 0.0061 µg/ml, read-out: Growth-inhibitory ratio), the inhibition at 0.0061 µg/mL turned out to be 5.3%. Moreover, the inhibition at 0.024 µg/mL in experiment [1] (Mus musculus, 65 h, B16, 0.024 µg/ml, read-out: Growth-inhibitory ratio) was determined as 36.8%. Also, the inhibition at 0.098 µg/mL in experiment [1] (Mus musculus, 65 h, B16, 0.098 µg/ml, read-out: Growth-inhibitory ratio) is 43.1%. In addition, the inhibition at 0.39 µg/mL in experiment [1] (Mus musculus, 65 h, B16, 0.39 µg/ml, read-out: Growth-inhibitory ratio) was found to be 45.3%. Besides, the inhibition at 1.56 µg/mL in experiment [1] (Mus musculus, 65 h, B16, 1.56 µg/ml, read-out: Growth-inhibitory ratio) turned out to be 48.9%. Besides, the inhibition at 6.25 µg/mL in experiment [1] (Mus musculus, 65 h, B16, 6.25 µg/ml, read-out: Growth-inhibitory ratio) came out at 89.7%. The inhibition at 25 µg/mL in experiment [1] (Mus musculus, 65 h, B16, 25 µg/ml, read-out: Growth-inhibitory ratio) came out at 105%. Further, the inhibition at 100 µg/mL in experiment [1] (Mus musculus, 65 h, B16, 100 µg/ml, read-out: Growth-inhibitory ratio) is 105%. Moreover, the IC50 in experiment [1] (mouse melanoma cells (B16), 65 hours after the addition, read-out: IC₅₀) was determined as 1.62 µg/mL (≈ 1.98 µM). For the same compound, the mortality (commonly the share of the test organisms that died) at 1 ppm in experiment [2] (1 ppm) was determined as 100%. In experiment [2] (10 ppm), this compound yielded a mortality at 10 ppm of 100%. Also, the mortality at 100 ppm in experiment [2] (100 ppm) came to 100%.
